Test results reported in paper PMC12606464, “Investigating NFE2L1 activators for targeted protein aggregate clearance: a follow-up study” (RSC Medicinal Chemistry, 2025).
pEC50: −log10 of the molar value. Where two headings read alike, the source gives them in different places.

Experiments:
NFE2L1 pathway = test: 3×PSMA4-ARE-LUC dual luciferase reporter assay in HEK293 cells; format: cell-based, human; details: for pEC50 / fold induction at 5 µM: Homo sapiens; for pEC50: HEK293; for fold induction at 5 µM: 16 h, HEK293, luminescence relative to DMSO-treated cells, read-out: NFE2L1 activation [5 μM]
In short: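 HEK293 cells carrying the 3×PSMA4-ARE luciferase reporter (with pRL-TK) were treated with compounds for 16 h, then luciferase activity was measured. Values are fold change in luminescence over DMSO-treated cells; EC50 from four-parameter logistic or bell-shaped fits with 1/Y^2 weighting.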

HEK293 cells = test: alamarBlue cytotoxicity assessment in HEK293 cells; format: cell-based, human; details: for Mean 1 (viability; 0 µM = 100): Fig. S2, n = 3; for Tox [% of ctrl.]: HEK293, alamarBlue, 16 h, concentration not given
In short: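 HEK293 cells exposed 16 h to compound at 1.25, 2.5, 5, 7.5 and 10 µM, with DMSO as vehicle control. Viability read by alamarBlue; means ± SD of three independent experiments.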

[1] = Bell-shaped fit, X is concentration, weighting 1/Y^2, Fig. S1
[2] = Bell-shaped fit, X is concentration, weighting 1/Y^2, Fig. S1, read-out: EC50_1 (best-fit)
[3] = PSMA4-ARE-luc2P reporter, four-parameter logistic or bell-shaped model, order of models not stated, read-out: EC50
[4] = PSMA4-ARE-luc2P reporter, four-parameter logistic or bell-shaped model, order of models not stated, read-out: EC50 (first value)
[5] = [Agonist] vs. Response, variable slope (four parameters), weighting 1/Y^2, Fig. S1

Compound: COc1ccc(/C=C2\CC(NC(=O)C3CCCC3)C/C(=C\c3ccc(OC)c(OC)c3)C2=O)cc1OC (stereo not drawn) [RUN-89]
- Dip (best-fit) (NFE2L1 pathway; [1]): 19.12
- Plateau1 (best-fit) (NFE2L1 pathway; [1]): 1.124
- Plateau2 (best-fit) (NFE2L1 pathway; [1]): 5.392
- nH1 (best-fit) (NFE2L1 pathway; [1]): -4.123
- nH2 (best-fit) (NFE2L1 pathway; [1]): -7.321
- pEC50 (NFE2L1 pathway; [2]): 5.31
- pEC50 (NFE2L1 pathway; [3]): 5.31
- pEC50 (NFE2L1 pathway; [4]): 5.51
- fold induction at 5 µM (NFE2L1 pathway): 11.7
- Bottom (best-fit) (NFE2L1 pathway; [5]): 1.08
- Hillslope (best-fit) (NFE2L1 pathway; [5]): 7.14
- Span (best-fit) (NFE2L1 pathway; [5]): 6.12
- Top (best-fit) (NFE2L1 pathway; [5]): 7.20
- logEC50 (best-fit) (NFE2L1 pathway; [5]): 0.49
- Mean 1 (viability; 0 µM = 100) (HEK293 cells; 5 uM): 76.01
- Mean 1 (viability; 0 µM = 100) (HEK293 cells; 10 uM): 68.72
- Mean 1 (viability; 0 µM = 100) (HEK293 cells; 1,125 uM): 100.7
- Mean 1 (viability; 0 µM = 100) (HEK293 cells; 2,5 uM): 91.49
- Mean 1 (viability; 0 µM = 100) (HEK293 cells; 7,5 uM): 71.31
- Tox [% of ctrl.] (HEK293 cells): 81% of ctrl.

Compound: COc1ccc(/C=C2\CC(NC(=O)c3ccccn3)C/C(=C\c3ccc(OC)c(OC)c3)C2=O)cc1OC (stereo not drawn) [RUN-94]
- Dip (best-fit) (NFE2L1 pathway; [1]): 8.602
- Plateau1 (best-fit) (NFE2L1 pathway; [1]): -2.174
- Plateau2 (best-fit) (NFE2L1 pathway; [1]): 11.95
- nH1 (best-fit) (NFE2L1 pathway; [1]): Unstable
- nH2 (best-fit) (NFE2L1 pathway; [1]): 18.05
- pEC50 (NFE2L1 pathway; [2]): 5.42
- pEC50 (NFE2L1 pathway; [3]): 5.42
- pEC50 (NFE2L1 pathway; [4]): 5.42
- pEC50 (NFE2L1 pathway; [Agonist] vs. Response, variable slope (four parameters), weighting 1/Y^2, Fig. S1, read-out: EC50 (best-fit)): 5.42
- fold induction at 5 µM (NFE2L1 pathway): 19.4
- Bottom (best-fit) (NFE2L1 pathway; [5]): 1.13
- Hillslope (best-fit) (NFE2L1 pathway; [5]): 55.77
- Span (best-fit) (NFE2L1 pathway; [5]): 9.24
- Top (best-fit) (NFE2L1 pathway; [5]): 10.37
- logEC50 (best-fit) (NFE2L1 pathway; [5]): 0.58
- Mean 1 (viability; 0 µM = 100) (HEK293 cells; 5 uM): 86.01
- Mean 1 (viability; 0 µM = 100) (HEK293 cells; 10 uM): 74.87
- Mean 1 (viability; 0 µM = 100) (HEK293 cells; 1,125 uM): 105.6
- Mean 1 (viability; 0 µM = 100) (HEK293 cells; 2,5 uM): 101.6
- Mean 1 (viability; 0 µM = 100) (HEK293 cells; 7,5 uM): 75.79
- Tox [% of ctrl.] (HEK293 cells): 78% of ctrl.

Compound: COc1ccc(/C=C2\CC(N)C/C(=C\c3ccc(OC)c(OC)c3)C2=O)cc1OC (stereo not drawn) [RUN-81]
- pEC50 (NFE2L1 pathway; [4]): 4.98
- fold induction at 5 µM (NFE2L1 pathway): 2.1
- Bottom (best-fit) (NFE2L1 pathway; [5]): 0.95
- Hillslope (best-fit) (NFE2L1 pathway; [5]): 2.70
- Span (best-fit) (NFE2L1 pathway; [5]): 18.71
- Top (best-fit) (NFE2L1 pathway; [5]): 19.66
- logEC50 (best-fit) (NFE2L1 pathway; [5]): 1.02
- Mean 1 (viability; 0 µM = 100) (HEK293 cells; 5 uM): 80.55
- Mean 1 (viability; 0 µM = 100) (HEK293 cells; 10 uM): 79.08
- Mean 1 (viability; 0 µM = 100) (HEK293 cells; 1,125 uM): 98.04
- Mean 1 (viability; 0 µM = 100) (HEK293 cells; 2,5 uM): 92.22
- Mean 1 (viability; 0 µM = 100) (HEK293 cells; 7,5 uM): 79.02
- Tox [% of ctrl.] (HEK293 cells): 84% of ctrl.
